“And” between values parts separate entries of the source, which are not always exact repeats. Equal entries are not always repeated. The source made the active and inactive calls. How the calls were made is not given here.
Target: Ubiquitin-conjugating enzyme E2 N (Homo sapiens) (UniProt P61088)
Assay: Ubc13/Uev1a ubiquitination inhibitors, SAR follow-up, selectivity assay, biochemical, TR-FRET (AID 2658)
Conditions: Ubc13/Uev1a polyubiquitination, in vitro

Sequence of Ubiquitin-conjugating enzyme E2 N (Homo sapiens) (P61088 whole entry, looked up): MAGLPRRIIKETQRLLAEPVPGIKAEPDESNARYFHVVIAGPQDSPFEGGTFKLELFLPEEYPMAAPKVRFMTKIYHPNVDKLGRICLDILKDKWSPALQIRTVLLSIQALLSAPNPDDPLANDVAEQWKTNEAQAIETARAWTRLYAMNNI

SMILES | IC50
Cc1[nH][nH]c(=O)c1C(c1ccc(-c2cccc(C(=O)O)c2)o1)c1c(C)[nH][nH]c1=O | > 100 µM (inactive)
COc1cc(C2c3c(oc4ccccc4c3=O)C(=O)N2c2nccs2)ccc1O (configuration not stated) | > 100 µM (inactive)
O=C(COC(=O)c1cc(-c2ccco2)nc2ccccc12)NC(=O)c1ccccc1 | 92.6 µM
COc1ccccc1CNC(=O)c1cc(-c2ccco2)nc2ccccc12 | > 100 µM (inactive)
C/C(=N\OCc1nc2ccccc2c(=O)n1/N=C/c1cc(Br)ccc1O)c1ccccc1 | > 100 µM (inactive)
O=C(O)c1ccc(C2Nc3ccc(F)cc3C3C=CCC32)cc1 (configuration not stated) | > 100 µM (inactive)
O=C(O)c1ccc(NS(=O)(=O)c2ccc3c(c2)C2C=CCC2C(c2ccccc2F)N3)cc1 (configuration not stated) | > 100 µM (inactive)
CCCCn1c(NC(=O)c2ccc(Br)o2)c(S(=O)(=O)c2ccccc2)c2nc3ccccc3nc21 | > 100 µM (inactive)
Cc1ccc(O)c(N=Cc2cccs2)c1 | > 100 µM (inactive)
Cc1ccc(NC(=O)Cn2c(O)c(N=NC(=O)c3cc4ccccc4cc3O)c3ccccc32)cc1 | > 100 µM (inactive)
Cc1ccc(C=Nc2ccccc2C(N)=O)s1 | > 100 µM (inactive)
COc1ccc(CCNC(=O)COC(=O)c2cc(-c3ccco3)nc3ccccc23)cc1 | > 100 µM (inactive)
Cc1[nH][nH]c(=O)c1C(c1ccc(-c2ccc(C(=O)O)cc2)o1)c1c(C)[nH][nH]c1=O | > 100 µM (inactive)
COc1ccc(CNC(=O)COC(=O)c2cc(-c3ccco3)nc3ccccc23)cc1OC | > 100 µM (inactive)
Cc1ccsc1C=Nc1ccc(C(N)=O)cc1 | > 100 µM (inactive)
CC(=NOCc1nc2ccccc2c(=O)n1N=Cc1cc(C)cc([N+](=O)[O-])c1O)c1ccccc1 | > 100 µM (inactive)
CCN(CC)S(=O)(=O)c1ccc(O)c(NC(=O)c2cc(-c3cc(OC)c(OC)c(OC)c3)nc3ccccc23)c1 | > 100 µM (inactive)
C/C(=N\OCc1nc2ccccc2c(=O)n1/N=C/c1ccccc1O)c1ccccc1 | > 100 µM (inactive)
CCNC(=O)COC(=O)c1cc(-c2ccco2)nc2ccccc12 | > 100 µM (inactive)
NS(=O)(=O)c1ccc2c(c1)C1C=CCC1C(c1ccc([N+](=O)[O-])cc1)N2 (configuration not stated) | > 100 µM (inactive)
Cc1ccc(CNC(=O)COC(=O)c2cc(-c3ccco3)nc3ccccc23)cc1 | 58.9 µM
S=c1[nH]nc(-c2cc(-c3ccccc3)n[nH]2)n1N=Cc1c(Cl)cccc1Cl | > 100 µM (inactive)
COc1ccccc1CNC(=O)CCOC(=O)c1cc(-c2ccco2)nc2ccccc12 | > 100 µM (inactive)

SMILES | IC50
COc1ccc(CCNC(=O)c2cc(-c3ccco3)nc3ccccc23)cc1 | 65 µM
Cc1[nH][nH]c(=O)c1C(c1ccc(-c2ccc(F)cc2)o1)c1c(C)[nH][nH]c1=O | > 100 µM (inactive)
O=C(O)c1ccc2c(c1)C1C=CCC1C(c1ccc(F)cc1)N2 (configuration not stated) | > 100 µM (inactive)
O=C(COC(=O)c1cc(-c2ccco2)nc2ccccc12)NCc1ccccc1Cl | > 100 µM (inactive)
Cc1ccccc1NC(=O)Cn1c(O)c(N=NC(=O)c2ccccc2O)c2ccccc21 | 98 µM
O=C(OCC(=O)N1CCN(C(=O)c2ccco2)CC1)c1cc(-c2ccco2)nc2ccccc12 | 93.1 µM
CCCCn1c(NC(=O)c2ccccc2Cl)c(C#N)c2nc3ccccc3nc21 | > 100 µM (inactive)
Cc1cccc(Nc2cc3ccccc3c(=O)[nH]2)c1 | > 100 µM (inactive)
COc1ccc(CCNC(=O)COC(=O)c2cc(-c3ccco3)nc3ccccc23)cc1OC | 92.6 µM
O=C(N/N=C/c1cccc(F)c1)c1cc(-c2ccco2)nc2ccccc12 | 25.8 µM and 23.3 µM
O=C(COC(=O)c1cc(-c2ccco2)nc2ccccc12)NCc1ccc(Cl)cc1 | 73.4 µM and 74.4 µM
CN(Cc1ccc(F)cc1)C(=O)COC(=O)c1cc(-c2ccco2)nc2ccccc12 | > 100 µM (inactive)
C/C(=N\OCc1nc2ccccc2c(=O)n1/N=C/c1ccc(Cl)cc1)c1ccccc1 | > 100 µM (inactive)
S=c1[nH]nc(-c2cc(-c3ccccc3)n[nH]2)n1N=Cc1ccc(Br)s1 | > 100 µM (inactive)
COc1ccc(CNC(=O)COC(=O)c2cc(-c3ccco3)nc3ccccc23)cc1 | 34.6 µM
N=C(N)c1ccc2cc(OC(=O)c3ccc(N=C(N)N)cc3)ccc2c1 | 14 µM
CN(C(=O)COC(=O)c1cc(-c2ccco2)nc2ccccc12)C1CCS(=O)(=O)C1 (configuration not stated) | 47.2 µM
Cc1c(Cl)cccc1NS(=O)(=O)c1ccc2c(c1)C1C=CCC1C(c1ccc(C(=O)O)cc1)N2 (configuration not stated) | > 100 µM (inactive)
COc1cc(-c2n[nH]c(=S)n2/N=C/c2cccn2C)cc(OC)c1OC | > 100 µM (inactive)
S=c1[nH]nc(-c2cc(-c3ccccc3)n[nH]2)n1N=Cc1ccc(Cl)c(Cl)c1 | > 100 µM (inactive)
O=C(OCC(=O)N1CCc2ccccc2C1)c1cc(-c2ccco2)nc2ccccc12 | > 100 µM (inactive)
Fc1ccc(C2Nc3ccccc3C3C=CCC32)cc1 (configuration not stated) | > 100 µM (inactive)
O=C(N/N=C/c1ccc(F)cc1)c1cc(-c2ccco2)nc2ccccc12 | 26.1 µM and 31.2 µM

SMILES | IC50
COc1ccccc1NC(=O)COC(=O)c1cc(-c2ccco2)nc2ccccc12 | 16.7 µM and > 100 µM (inactive)
C=CCC(Nc1ccccc1)C12C=CC(O1)C(C(=O)OC)=C2C(=O)OC (configuration not stated) | > 100 µM (inactive)
COC(=O)c1ccc2c(c1)C1C=CCC1C(c1ccc(C(=O)O)cc1)N2 (configuration not stated) | > 100 µM (inactive)
COc1ccc(CNC(=O)COC(=O)c2cc(-c3ccc(C)o3)nc3ccccc23)cc1 | 86.6 µM
CCN(CC)C(=O)COC(=O)c1cc(-c2ccco2)nc2ccccc12 | > 100 µM (inactive)
COC(=O)c1ccc(CNC(=O)COC(=O)c2cc(-c3ccco3)nc3ccccc23)cc1 | > 100 µM (inactive)
Cc1cccc2c(N=Nc3ccc(S(=O)(=O)Nc4cccc(Cl)c4)cc3[N+](=O)[O-])c(O)[nH]c12 | > 100 µM (inactive)
CC(=O)NC1C(=O)N(CCN2CCOCC2)c2ccc(F)cc21 (configuration not stated) | > 100 µM (inactive)
COc1ccccc1CNC(=O)COC(=O)c1cc(-c2cccs2)nc2ccccc12 | 82.5 µM
O=C(N=Nc1c(O)[nH]c2ccc([N+](=O)[O-])cc12)c1ccccc1Cl | > 100 µM (inactive)
COc1ccccc1COC(=O)COC(=O)c1cc(-c2ccco2)nc2ccccc12 | 68.2 µM
O=c1c2ccccc2nc(COc2ccccc2)n1N=Cc1cc([N+](=O)[O-])ccc1O | > 100 µM (inactive)
Cc1ccc(C2Nc3ccc(C(=O)O)cc3C3C=CCC32)cc1 (configuration not stated) | > 100 µM (inactive)
COc1ccc2c(c1)C(NC(C)=O)C(=O)N2CCN1CCOCC1 (configuration not stated) | 86.1 µM
C=CCn1c(NC(=O)c2ccccc2Cl)c(C#N)c2nc3ccccc3nc21 | > 100 µM (inactive)
Cc1ccsc1C=Nc1ccc(O)cc1 | > 100 µM (inactive)
O=C(O)c1ccc2c(c1)C1C=CCC1C(c1ccccc1)N2 (configuration not stated) | > 100 µM (inactive)
COc1ccc(CNC(=O)c2cc(-c3ccco3)nc3ccccc23)cc1 | > 100 µM (inactive)
CCOc1cc(C2c3c(oc4ccccc4c3=O)C(=O)N2c2nccs2)ccc1O (configuration not stated) | > 100 µM (inactive)
Cc1ccc(N=Cc2sccc2C)cc1C | > 100 µM (inactive)
C=CCn1c(NS(=O)(=O)c2ccccc2)c(S(=O)(=O)c2ccc(C)cc2)c2nc3ccccc3nc21 | > 100 µM (inactive)
